Source: ChEMBL document CHEMBL1152763, “Synthesis, cytotoxic activity, and DNA binding properties of antitumor cis-1,2-dihydroxy-1,2-dihydrobenzo[b]acronycine cinnamoyl esters” (Bioorg Med Chem, 2009)
Calls of active or inactive are those of the source. The calls are words filed in the database; no cut-off is given here.

System: L1210
Test: Cytotoxicity against mouse L1210 cells after 48 hrs by microculture tetrazolium assay
Assay type: functional, cell-based
Settings: Mus musculus, L1210, 48 h; read-out: IC50

| Structure (SMILES) | IC50 |
| --- | --- |
| COc1cc2c(c3c1c(=O)c1cc4ccccc4cc1n3C)[C@@H](OC(C)=O)[C@@H](OC(=O)/C=C/c1ccc(C(F)(F)F)cc1)C(C)(C)O2 (racemic) | 1500 nM |
| COc1cc2c(c3c1c(=O)c1cc4ccccc4cc1n3C)[C@@H](O)[C@@H](OC(=O)/C=C/c1ccccc1)C(C)(C)O2 (racemic) | 120 nM |
| COc1cc2c(c3c1c(=O)c1cc4ccccc4cc1n3C)[C@@H](OC(C)=O)[C@@H](OC(=O)/C=C/c1cccc(Br)c1)C(C)(C)O2 (racemic) | 600 nM |
| COc1cc2c(c3c1c(=O)c1cc4ccccc4cc1n3C)[C@@H](O)[C@@H](OC(=O)/C=C/c1cccc(Cl)c1)C(C)(C)O2 (racemic) | 60 nM |
| COc1cc2c(c3c1c(=O)c1cc4ccccc4cc1n3C)[C@@H](O)[C@@H](OC(=O)/C=C/c1cccc(C(F)(F)F)c1)C(C)(C)O2 (racemic) | 100 nM |
| COc1cc2c(c3c1c(=O)c1cc4ccccc4cc1n3C)[C@@H](OC(C)=O)[C@@H](OC(=O)/C=C/c1ccc(Cl)cc1Cl)C(C)(C)O2 (racemic) | 600 nM |
| COc1cc2c(c3c1c(=O)c1cc4ccccc4cc1n3C)[C@@H](O)[C@@H](OC(=O)/C=C/c1ccc(Cl)cc1)C(C)(C)O2 (racemic) | 40 nM |
| COc1cc2c(c3c1c(=O)c1cc4ccccc4cc1n3C)[C@@H](OC(C)=O)[C@@H](OC(=O)/C=C/c1ccc([N+](=O)[O-])cc1)C(C)(C)O2 (racemic) | 500 nM |
| COc1ccc(/C=C/C(=O)O[C@@H]2[C@H](OC(C)=O)c3c(cc(OC)c4c(=O)c5cc6ccccc6cc5n(C)c34)OC2(C)C)cc1 (racemic) | 1200 nM |
| COc1cc2c(c3c1c(=O)c1cc4ccccc4cc1n3C)[C@@H](O)[C@@H](OC(=O)/C=C/c1ccc(Cl)cc1Cl)C(C)(C)O2 (racemic) | 35 nM |
| COc1cc2c(c3c1c(=O)c1cc4ccccc4cc1n3C)[C@@H](O)[C@@H](OC(=O)/C=C/c1ccc(Br)cc1)C(C)(C)O2 (racemic) | 50 nM |
| COc1cc2c(c3c1c(=O)c1cc4ccccc4cc1n3C)[C@@H](OC(C)=O)[C@@H](OC(=O)/C=C/c1ccc(Br)cc1)C(C)(C)O2 (racemic) | 700 nM |
| COc1cc2c(c3c1c(=O)c1cc4ccccc4cc1n3C)[C@@H](OC(C)=O)[C@@H](OC(C)=O)C(C)(C)O2 (racemic) | 790 nM |

Same assay, conditions: l1210

| Structure (SMILES) | IC50 |
| --- | --- |
| COc1cc2c(c3c1c(=O)c1cc4ccccc4cc1n3C)[C@@H](OC(C)=O)[C@@H](OC(=O)/C=C/c1cccc(Cl)c1)C(C)(C)O2 (racemic) | Insoluble |

System: not listed separately
Test: (§1) Cytotoxicity against human KB-3-1 cells after 96 hrs by microculture tetrazolium assay
Assay type: functional, cell-based
Settings: KB 3-1, 96 h

| Structure (SMILES) | IC50 |
| --- | --- |
| COc1cc2c(c3c1c(=O)c1cc4ccccc4cc1n3C)[C@@H](OC(C)=O)[C@@H](OC(=O)/C=C/c1ccc(C(F)(F)F)cc1)C(C)(C)O2 (racemic) | 300 nM |
| COc1cc2c(c3c1c(=O)c1cc4ccccc4cc1n3C)[C@@H](O)[C@@H](OC(=O)/C=C/c1ccccc1)C(C)(C)O2 (racemic) | 30 nM |
| COc1cc2c(c3c1c(=O)c1cc4ccccc4cc1n3C)[C@@H](OC(C)=O)[C@@H](OC(=O)/C=C/c1cccc(Br)c1)C(C)(C)O2 (racemic) | 120 nM |
| COc1cc2c(c3c1c(=O)c1cc4ccccc4cc1n3C)[C@@H](O)[C@@H](OC(=O)/C=C/c1cccc(Cl)c1)C(C)(C)O2 (racemic) | 20 nM |
| COc1cc2c(c3c1c(=O)c1cc4ccccc4cc1n3C)[C@@H](O)[C@@H](OC(=O)/C=C/c1cccc(C(F)(F)F)c1)C(C)(C)O2 (racemic) | 15 nM |
| COc1cc2c(c3c1c(=O)c1cc4ccccc4cc1n3C)[C@@H](OC(C)=O)[C@@H](OC(=O)/C=C/c1ccc(Cl)cc1Cl)C(C)(C)O2 (racemic) | 90 nM |
| COc1cc2c(c3c1c(=O)c1cc4ccccc4cc1n3C)[C@@H](O)[C@@H](OC(=O)/C=C/c1ccc(Cl)cc1)C(C)(C)O2 (racemic) | 8 nM |
| COc1cc2c(c3c1c(=O)c1cc4ccccc4cc1n3C)[C@@H](OC(C)=O)[C@@H](OC(=O)/C=C/c1ccc([N+](=O)[O-])cc1)C(C)(C)O2 (racemic) | 140 nM |
| COc1ccc(/C=C/C(=O)O[C@@H]2[C@H](OC(C)=O)c3c(cc(OC)c4c(=O)c5cc6ccccc6cc5n(C)c34)OC2(C)C)cc1 (racemic) | 240 nM |
| COc1cc2c(c3c1c(=O)c1cc4ccccc4cc1n3C)[C@@H](O)[C@@H](OC(=O)/C=C/c1ccc(Cl)cc1Cl)C(C)(C)O2 (racemic) | 6 nM |
| COc1cc2c(c3c1c(=O)c1cc4ccccc4cc1n3C)[C@@H](O)[C@@H](OC(=O)/C=C/c1ccc(Br)cc1)C(C)(C)O2 (racemic) | 6 nM |
| COc1cc2c(c3c1c(=O)c1cc4ccccc4cc1n3C)[C@@H](OC(C)=O)[C@@H](OC(=O)/C=C/c1ccc(Br)cc1)C(C)(C)O2 (racemic) | 80 nM |
| COc1cc2c(c3c1c(=O)c1cc4ccccc4cc1n3C)[C@@H](OC(C)=O)[C@@H](OC(C)=O)C(C)(C)O2 (racemic) | 100 nM |

System: KB 3-1
Test: as §1
Assay type: functional, cell-based
Settings: not given

| Structure (SMILES) | solubility |
| --- | --- |
| COc1cc2c(c3c1c(=O)c1cc4ccccc4cc1n3C)[C@@H](OC(C)=O)[C@@H](OC(=O)/C=C/c1cccc(Cl)c1)C(C)(C)O2 (racemic) | Not soluble |

System: not listed separately
Test: Binding affinity to pBS plasmid 117 base-pair DNA fragment assessed as half life of DNA alkylation by gel shift assay
Settings: not given

| T1/2 | Structure (SMILES) |
| --- | --- |
| 0.333 h | COc1cc2c(c3c1c(=O)c1cc4ccccc4cc1n3C)[C@@H](O)[C@@H](OC(=O)/C=C/c1ccccc1)C(C)(C)O2 (racemic) |
| 1 h | COc1cc2c(c3c1c(=O)c1cc4ccccc4cc1n3C)[C@@H](O)[C@@H](OC(=O)/C=C/c1ccc(Cl)cc1)C(C)(C)O2 (racemic) |
| 1 h | COc1cc2c(c3c1c(=O)c1cc4ccccc4cc1n3C)[C@@H](O)[C@@H](OC(=O)/C=C/c1ccc(Br)cc1)C(C)(C)O2 (racemic) |
| 6 h | COc1cc2c(c3c1c(=O)c1cc4ccccc4cc1n3C)[C@@H](OC(C)=O)[C@@H](OC(=O)/C=C/c1ccc(Br)cc1)C(C)(C)O2 (racemic) |
| 0.5 h | COc1cc2c(c3c1c(=O)c1cc4ccccc4cc1n3C)[C@@H](OC(C)=O)[C@@H](OC(C)=O)C(C)(C)O2 (racemic) |

System: MC-38
Test: Antitumor activity against mouse Colon 38 cells xenografted B6D2F1 mouse assessed as inhibition of tumor growth at 4 mg/kg, iv administered twice daily
Assay type: functional
Settings: not given

| Structure (SMILES) | inhibition in vivo at 4 mg/kg |
| --- | --- |
| COc1cc2c(c3c1c(=O)c1cc4ccccc4cc1n3C)[C@@H](OC(C)=O)[C@@H](OC(C)=O)C(C)(C)O2 (racemic) | 99% |

System: MC-38
Test: Antitumor activity against mouse Colon 38 cells xenografted B6D2F1 mouse assessed as tumor free state at 4 mg/kg, iv administered twice daily on day 90 post drug dose
Assay type: functional, organism-based
Set-up: dose 4 mg/kg
Settings: not given

| Structure (SMILES) | Activity |
| --- | --- |
| COc1cc2c(c3c1c(=O)c1cc4ccccc4cc1n3C)[C@@H](OC(C)=O)[C@@H](OC(C)=O)C(C)(C)O2 (racemic) | Active |
